Several values for one entry are separate records, joined by “and”; a condition that tells them apart may be missing. Equal values may be shown once. Where only a bound is given, the exact number is not on record here.

For experiment [1], the target named is T1, IDO1 (Homo sapiens, UniProt P14902). Kind of experiment: Cell-based assay for IDO1 in interferon-γ stimulated A-375 melanoma cells. Particulars: interferon-γ stimulation, 48 hours, read-out: IC50, cell-based IDO1 (NFK levels). As for the experimental part: The biological activity of IDO1 inhibitors can be measured by applying above detection methods to cells that are treated with test compound. The expression of IDO1 can be induced in many different cell lines by stimulation with IFNγ (Takikawa, O., et al., J. Biol. Chem. 263: 2041; 1988; Seegers, et al.), or IDO1 can be expressed in cells that lack endogenous IDO1 by transfection of an expression vector containing IDO1 cDNA.
A-375 melanoma cells were purchased from LGC Standards GmbH (Wesel, Germany) and cultured in DMEM tissue culture medium (Life Technologies, Bleiswijk, The Netherlands), supplemented with 10% (v/v) bovine calf serum. Compounds were dissolved in DMSO and diluted in DMEM. Final DMSO concentration in the assay was 0.4% (v/v). Eight thousand cells per well in 35 μl were seeded in a black 384-well tissue plate (cat. No. 781086; Greiner Bio-One GmbH, Frickenhausen, Germany) and allowed to adhere by incubation at 37° C., 95% humidity, and 5% CO2 overnight. Then, 5 μl of compound solution was added to the cells 1 hour prior to stimulation with 5 μl of 500 ng/ml interferon-γ (R&D Systems, Minneapolis, Minn., USA) diluted in DMEM medium. At the same time, 5 μl of L-tryptophan in 20 mM Hepes buffer pH 7.4 was added. Incubation was continued for 48 hours. To determine NFK levels, 12 μl NFK Green™ (NTRC, Oss, The Netherlands) was added to each well, and the plate was sealed and incubated for 4 hours at 37° C. Fluorescence was measured on an EnVision multimode reader (Perkin Elmer, Waltham, Mass., USA). IC50 were calculated using XLfit™ software (ID Business Solutions, Ltd., Surrey, U.K.).

The target in experiment [2] is T1, IDO1. Kind of experiment: Biochemical IDO1 assay (NFK GreenScreen). Details: Recombinant full-length IDO1 (Seegers, N., et al.) and all other assay components were diluted in IDO1 reaction buffer; made in house. The settings on record: for IC50: recombinant full-length IDO1 25 nM, L-tryptophan 100 μM, NFK Green detection, read-out: IC50, inhibitory potency on IDO1; for relative activity of separated isomers: less active / most active isomer of the pair, assay not given. As for the experimental part:
Inhibition of IDO1 activity can be measured by determining the enzymatic conversion of L-tryptophan into N-formylkynurenine (NFK) in a reaction mixture containing IDO1 and test compound. The formation of NFK can be detected directly by, for instance, high-performance liquid chromatography (HPLC) methods, or by intrinsic fluorescence.
Compounds were serially diluted in dimethylsulfoxide (DMSO) and finally in IDO1 reaction buffer, consisting of 50 mM NaH2PO4, pH7.0, supplemented with 0.05% Tween-20 (cat. No. P7949; Sigma Aldrich) and 1% glycerol. Recombinant full-length IDO1 (Seegers, N., et al.) and all other assay components were diluted in IDO1 reaction buffer. […] Subsequently, 10 μl of 0.4 mM of the substrate L-tryptophan was added, i.e., the final concentration of L-tryptophan was 100 μM. The DMSO concentration in the assay was 0.3%. […] Incubation was continued for 60 min at room temperature. Then, 10 μl of NFK Green™ (NTRC, Oss, The Netherlands) was added, the plate was sealed, and the reaction was developed for 3 hours at 37° C. To determine the production of N-formyl kynurenine (NFK), the seal was removed and fluorescence was read on an EnVision multimode reader (Perkin Elmer, Waltham, Mass., USA). IC50 were calculated using XLfit™ software (ID Business Solutions, Ltd., Surrey, U.K.).

T1 sequence (P14902 whole entry, species assumed): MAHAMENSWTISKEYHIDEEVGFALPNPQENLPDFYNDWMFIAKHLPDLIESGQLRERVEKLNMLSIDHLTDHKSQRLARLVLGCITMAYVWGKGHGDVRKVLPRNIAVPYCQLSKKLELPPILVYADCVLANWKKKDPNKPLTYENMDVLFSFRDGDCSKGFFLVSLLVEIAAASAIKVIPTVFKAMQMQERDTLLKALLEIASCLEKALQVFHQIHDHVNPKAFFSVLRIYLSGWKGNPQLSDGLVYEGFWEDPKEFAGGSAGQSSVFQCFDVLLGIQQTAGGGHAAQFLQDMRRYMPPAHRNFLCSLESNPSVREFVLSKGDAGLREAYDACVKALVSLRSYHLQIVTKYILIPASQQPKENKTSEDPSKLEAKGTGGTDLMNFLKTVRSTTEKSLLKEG

As for `Nc1ccc(F)c(C(=O)N2CC(=O)N(O)C2c2cccc(Br)c2)c1F` (centres unmarked) [Example 76, 1-(3-Amino-2,6-difluoro-benzoyl)-2-(3-bromophenyl)-3-hydroxy-imidazolidin-4-one], the IC50 (as a rule, the concentration at which inhibition is half-maximal) at IDO1 [1] is less than 5 µM; on IDO1 [2] it was no more than 1 µM.
As to `CC(c1c(F)cccc1F)N1CC(=O)N(O)C1c1cccc(Br)c1` (single isomer, unassigned) [Example 141b, 2-(3-Bromophenyl)-1-[1-(2,6-difluorophenyl)ethyl]-3-hydroxy-imidazolidin-4-one], the IC50 was less than 5 µM at IDO1 [1] and no more than 1 µM at IDO1 [2].
Turning to `O=C1CN(Cc2c(F)cccc2F)C(c2cccc(Br)c2)N1O` (centres unmarked) [Example 127, 2-(3-Bromophenyl)-1-[(2,6-difluorophenyl)methyl]-3-hydroxy-imidazolidin-4-one], the IC50 on IDO1 [1] is less than 5 µM; at IDO1 [2] it was no more than 1 µM.
Take `O=C1CN(C(=O)c2c(F)c(F)c(F)c(F)c2F)C(c2cccc(Br)c2)N1O` (centres unmarked) [Example 62, 2-(3-Bromophenyl)-3-hydroxy-1-(2,3,4,5,6-pentafluorobenzoyl)imidazolidin-4-one]: the IC50 on IDO1 [1] is less than 5 µM; at IDO1 [2], no more than 1 µM.
The matching figures for `O=C1CN(Cc2ccccc2F)C(c2cccc(Br)c2)N1O` (centres unmarked) [Example 125, 2-(3-Bromophenyl)-1-[(2-fluorophenyl)methyl]-3-hydroxy-imidazolidin-4-one]: less than 5 µM and no more than 1 µM.
In the case of `O=C1CN(C(=O)c2ccc(F)cc2F)C(c2cccc(Br)c2)N1O` (centres unmarked) [Example 54, 2-(3-Bromophenyl)-1-(2,4-difluorobenzoyl)-3-hydroxy-imidazolidin-4-one], the IC50 is less than 5 µM on IDO1 [1] and no more than 1 µM on IDO1 [2].
Taken in the same sequence, the figures for `O=C1CN(C(=O)c2ccccc2F)C(c2cccc(I)c2)N1O` (centres unmarked) [Example 73, 1-(2-Fluorobenzoyl)-3-hydroxy-2-(3-iodophenyl)imidazolidin-4-one] were less than 5 µM and no more than 1 µM.
On to `Cc1cc(F)c(C(=O)N2CC(=O)N(O)C2c2cccc(Br)c2)c(F)c1` (centres unmarked) [Example 116, 2-(3-Bromophenyl)-1-(2,6-difluoro-4-methyl-benzoyl)-3-hydroxy-imidazolidin-4-one], for which the half-inhibitory concentration (IC50) at IDO1 [1] is less than 5 µM; at IDO1 [2], no more than 1 µM.
For `COc1cc(F)c(C(=O)N2CC(=O)N(O)C2c2cccc(Br)c2)c(F)c1` (centres unmarked) [Example 66, 2-(3-Bromophenyl)-1-(2,6-difluoro-4-methoxy-benzoyl)-3-hydroxy-imidazolidin-4-one], the IC50 on IDO1 [1] is less than 5 µM; at IDO1 [2], no more than 1 µM.
As for `O=C1CN(C(=O)c2c(F)cccc2Cl)C(c2cccc(I)c2)N1O` (centres unmarked) [Example 72, 1-(2-chloro-6-fluoro-benzoyl)-3-hydroxy-2-(3-iodophenyl)imidazolidin-4-one], the IC50 at IDO1 [1] was less than 5 µM; at IDO1 [2], no more than 1 µM.
With `O=C1CN(C(=O)c2c(F)cccc2F)C(c2cccc(Br)c2)N1O` (single isomer, unassigned) [Example 142a, 2-(3-bromophenyl)-1-(2,6-difluorobenzoyl)-3-hydroxy-imidazolidin-4-one], the IC50 at IDO1 [1] is less than 5 µM. Moreover, on IDO1 [2], the “relative activity of separated isomers” value was “less active isomer”; the IC50 was ≤ 5 µM and 1 to 5 µM.
As to `O=C1CN(C(=O)c2ccccc2F)C(c2ccc(F)c(Cl)c2)N1O` (centres unmarked) [Example 51, 2-(3-Chloro-4-fluoro-phenyl)-1-(2-fluorobenzoyl)-3-hydroxy-imidazolidin-4-one], the IC50 at IDO1 [1] was less than 5 µM; at IDO1 [2], no more than 1 µM.
Take `O=C1CN(C(=O)c2c(F)cc(-c3ccncc3)cc2F)C(c2cccc(Br)c2)N1O` (centres unmarked) [Example 118, 2-(3-Bromophenyl)-1-[2,6-difluoro-4-(4-pyridyl)benzoyl]-3-hydroxy-imidazolidin-4-one]: the IC50 was less than 5 µM at IDO1 [1] and no more than 1 µM at IDO1 [2].
As to `O=C1CN(C(=O)c2ccccc2)C(c2cccc(Br)c2)N1O` (centres unmarked) [Example 17, 1-Benzoyl-2-(3-bromophenyl)-3-hydroxy-imidazolidin-4-one], the IC50 on IDO1 [1] was less than 5 µM; at IDO1 [2], ≤ 5 µM and 1 to 5 µM.
For the compound `O=C1CN(C(=O)c2c(F)cccc2F)C(c2ccc(Cl)c(C(F)(F)F)c2)N1O` (centres unmarked) [Example 9, 2-[4-Chloro-3-(trifluoromethyl)phenyl]-1-(2,6-difluorobenzoyl)-3-hydroxy-imidazolidin-4-one], the IC50 on IDO1 [1] was less than 5 µM; at IDO1 [2], no more than 1 µM.
The matching figures for `O=C1CN(C(=O)c2c(F)cc(C3CC3)cc2F)C(c2cccc(Br)c2)N1O` (centres unmarked) [Example 114, 2-(3-Bromophenyl)-1-(4-cyclopropyl-2,6-difluoro-benzoyl)-3-hydroxy-imidazolidin-4-one]: less than 5 µM and no more than 1 µM.
The matching figures for `COCCNC(=O)c1c(Br)cc(F)c(C(=O)N2CC(=O)N(O)C2c2cccc(Br)c2)c1F` (centres unmarked) [Example 138, 6-Bromo-3-[2-(3-bromophenyl)-3-hydroxy-4-oxo-imidazolidine-1-carbonyl]-2,4-difluoro-N-(2-methoxyethyl)benzamide]: less than 5 µM and no more than 1 µM.
In the case of `C[C@@H](c1ccccc1)N1CC(=O)N(O)C1c1cccc(Br)c1` (single isomer, unassigned) [Example 139b], the IC50 on IDO1 [1] is less than 5 µM. Also, on IDO1 [2], the “relative activity of separated isomers” value is “most active isomer” and the IC50 was no more than 1 µM.
As for `O=C1CN(C(=O)c2c(F)cccc2F)C(c2cccc(Cl)c2)N1O` (centres unmarked) [Example 15, 2-(3-Chlorophenyl)-1-(2,6-difluorobenzoyl)-3-hydroxy-imidazolidin-4-one], the IC50 at IDO1 [1] was less than 5 µM; on IDO1 [2], no more than 1 µM.
As to `COCCNC(=O)c1cc(F)c(C(=O)N2CC(=O)N(O)C2c2cccc(Br)c2)c(F)c1` (centres unmarked) [Example 137, 4-[2-(3-Bromophenyl)-3-hydroxy-4-oxo-imidazolidine-1-carbonyl]-3,5-difluoro-N-(2-methoxyethyl)benzamide], the IC50 on IDO1 [1] was less than 5 µM; at IDO1 [2], no more than 1 µM.
As for `O=C1CN(C(=O)c2c(F)cccc2F)C(c2cccc(Br)c2)N1O` (centres unmarked) [Example 27, 2-(3-Bromophenyl)-1-(2,6-difluorobenzoyl)-3-hydroxy-imidazolidin-4-one], the half-inhibitory concentration (IC50) at IDO1 [1] is less than 5 µM; at IDO1 [2] it was no more than 1 µM.
`O=C1CN(C(=O)c2c(F)cc(C#CC3CCCCC3)cc2F)C(c2cccc(Br)c2)N1O` (centres unmarked) [Example 108, 2-(3-Bromophenyl)-1-[4-(2-cyclohexylethynyl)-2,6-difluoro-benzoyl]-3-hydroxy-imidazolidin-4-one]: the IC50 on IDO1 [1] was less than 5 µM; on IDO1 [2], no more than 1 µM.
On to `CS(=O)(=O)NCC#Cc1cc(F)c(C(=O)N2CC(=O)N(O)C2c2cccc(Br)c2)c(F)c1` (centres unmarked) [Example 110, N-[3-[4-[2-(3-bromophenyl)-3-hydroxy-4-oxo-imidazolidine-1-carbonyl]-3,5-difluoro-phenyl]prop-2-ynyl]methanesulfonamide], for which the IC50 on IDO1 [2] was no more than 1 µM.
In the case of `C[C@@H](c1ccccc1)N1CC(=O)N(O)C1c1cccc(Br)c1` (single isomer, unassigned) [Example 139a], the “relative activity of separated isomers” value at IDO1 [2] is “less active isomer”.
For the compound `O=C1CN(C(=O)c2ccccc2F)C(c2ccc(Cl)c(C(F)(F)F)c2)N1O` (centres unmarked) [Example 8, 2-[4-Chloro-3-(trifluoromethyl)phenyl]-1-(2-fluorobenzoyl)-3-hydroxy-imidazolidin-4-one], on IDO1 [2], the IC50 is ≤ 5 µM and 1 to 5 µM.
For the compound `O=C1CN(C(=O)c2ccccc2C(F)(F)F)C(c2cccc(Br)c2)N1O` (centres unmarked) [Example 28, 2-(3-Bromophenyl)-3-hydroxy-1-[2-(trifluoromethyl)benzoyl]imidazolidin-4-one], the IC50 at IDO1 [2] was ≤ 5 µM and 1 to 5 µM.

Values taken from patent US10494360B2, “Inhibitors of indoleamine 2,3-dioxygenase” (NETHERLANDS TRANSLATIONAL RESEARCH CENTER B.V., priority 2016, dated 2019).
